# Results from patent publication US20260337231A1, “METHOD FOR PRODUCING CYCLIC PEPTIDE COMPOUND” (CHUGAI SEIYAKU KABUSHIKI KAISHA, priority 2023, published 2026).
# What was measured:
# Format in all cases: physicochemical
# [1] = Powder X-ray diffraction measurement at each relative humidity (influence of humidity on the crystal form); conditions: 35.0 °C
# Experimental: (§1) The powder X-ray diffraction measurement for Example 3-12 was performed under the following conditions to evaluate the crystal form at each relative humidity. The measurement was carried out at the time points between dropping the relative humidity to 0% and raising it to 90%: 0% (FIG. 21(A)), 10% (FIG. 21(B)), 20% (FIG. 21(C)), 50% (FIG. 21(D)), and 90% (FIG. 21(E)). • Measurement apparatus: SmartLab System, D/Tex Ultra detector, humidity generator HUM-SL (manufactured by Rigaku Corporation) • Radiation source: CuKα1 • Tube voltage: 45 kV • Tube current: 200 mA • Scanning range: 4 to 35° • Scanning speed: 5°/min • Sampling width: 0.02° • Humidity change conditions:
# as §1, with “3-13” for “3-12”, “24(A)), 30%” for “21(A)), 10%”, “24(B)),” for “21(B)), 20% (FIG. 21(C)),”, “24(C)),” for “21(D)),”, “24(D)).” for “21(E)).”, “conditions: […]” for “conditions:”
# [2] = Thermogravimetry-differential thermal analysis (TG-DTA); conditions: 10° C./min, nitrogen
# Experimental: The thermogravimetry-differential thermal analysis (TG-DTA) for Example 3-8, Example 3-9, Example 3-12, Example 3-13, Example 3-17, and Example 3-19 was performed under the following conditions. • Measurement apparatus: STA7200RV+AS-3T (manufactured by Hitachi High-Tech Science Corporation) • Measurement range: 30 to 350° C. • Heating rate: 10° C./min • Atmosphere: nitrogen • Measurement: The sample was weighed in an open aluminum pan and covered with a mesh to perform the measurement.
# [3] = Slurry conversion experiment (form A, form B and form K crystals mixed and shaken in mixed solvent); conditions: 25° C., 2000 rpm
# Experimental: The powder X-ray diffraction measurement for Example 3-2, Example 3-3, Example 3-4, Example 3-5, Example 3-6, Example 3-7, Example 3-9, Example 3-16, Example 3-17, Example 3-22, Example 5-1, Example 5-2, Example 5-3, Example 5-4, Example 5-5, Example 5-6, Example 5-7, Example 5-8, and Example 5-9 was performed under the following conditions. • Measurement apparatus: D8 Discover, 2D VANTEC-500 solid state detector (manufactured by Bruker) • Radiation source: CuKα • Tube voltage and tube current: 50 kV and 1000 μA • Measurement range: 5 to 31° • Exposure time: 40 seconds
# (§2) The form A crystal (3.0 mg), form B crystal (3.0 mg), and form K crystal (3.0 mg) of compound 1 were mixed, and a mixed solvent of acetone-heptane (1:1 (v/v), 0.030 mL) and one grain of glass bead were added. Using a shaker (BioShaker M⋅BR-022UP manufactured by TAITEC CORPORATION), the mixture was shaken at 25° C., 2000 rpm for 9 days, and then filtered and dried under reduced pressure to obtain a crystal (form B) of compound 1. […] It was confirmed that the form B crystal is a stable form in the mixed solvent of acetone-heptane (1:1 (v/v)).
# as §2, with “(3.1” for “(3.0”, “2-propanol-heptane” for “acetone-heptane”
# as §2, with “K crystal (3.1 mg) of” for “K crystal (3.0 mg) of”, “solvent of ethanol-heptane (1:1 (v/v),” for “solvent of acetone-heptane (1:1 (v/v),”, “solvent of ethanol-heptane (1:1 (v/v)).” for “solvent of acetone-heptane (1:1 (v/v)).”
# as §2, with “acetone-water” for “acetone-heptane”
# as §2, with “B crystal (3.1 mg), and” for “B crystal (3.0 mg), and”, “K crystal (3.1 mg) of” for “K crystal (3.0 mg) of”, “solvent of 2-propanol-water (1:1 (v/v),” for “solvent of acetone-heptane (1:1 (v/v),”, “solvent of 2-propanol-water (1:1 (v/v)).” for “solvent of acetone-heptane (1:1 (v/v)).”
# The form A crystal (3.1 mg), form B crystal (3.0 mg), and form K crystal (3.1 mg) of compound 1 were mixed, and a mixed solvent of ethanol-water (1:1 (v/v), 0.030 mL) and one grain of glass bead were added. Using a shaker (BioShaker M⋅BR-022UP manufactured by TAITEC CORPORATION), the mixture was shaken at 25° C., 2000 rpm for 9 days, and then filtered and dried under reduced pressure to obtain a crystal (form B) of compound 1. […] It was confirmed that the form B crystal is a stable form in the mixed solvent of ethanol-water (1:1 (v/v)). […]
crystal form at a relative humidity of 0% [1],weight reduction ([2]; crystal of Example 3-8 (from acetone/heptane)),weight reduction ([2]; crystal of Example 3-9 (from 2-propanol/heptane)),"stable form in slurry conversion ([3]; 2-propanol-heptane (1:1 (v/v)), 9 days)","stable form in slurry conversion ([3]; 2-propanol-water (1:1 (v/v)), 9 days)","stable form in slurry conversion ([3]; 2-propanol-water (1:4 (v/v)), 9 days)","stable form in slurry conversion ([3]; acetone-heptane (1:1 (v/v)), 9 days)","stable form in slurry conversion ([3]; acetone-water (1:1 (v/v)), 9 days)","stable form in slurry conversion ([3]; acetone-water (1:4 (v/v)), 9 days)","stable form in slurry conversion ([3]; ethanol-heptane (1:1 (v/v)), 9 days)","stable form in slurry conversion ([3]; ethanol-water (1:1 (v/v)), 9 days)","stable form in slurry conversion ([3]; ethanol-water (1:4 (v/v)), 7 days)",SMILES
transformed into the form J,3 wt %,2 wt %,–,–,–,–,–,–,–,–,–,CCC[C@H]1C(=O)N[C@@H]([C@@H](C)CC)C(=O)N2CCC[C@H]2C(=O)N(C)[C@H]2C/C=C\CCN(C2=O)[C@@H](Cc2ccc(C(F)(F)F)cc2)C(=O)N(C)CC(=O)N[C@@H](CCc2ccc(C(F)(F)F)c(OC)c2)C(=O)N2C[C@H](OCC)C[C@H]2C(=O)N(C)C2(CCC2)C(=O)N(C)[C@@H](C2CCCC2)C(=O)N(C)[C@H](C(=O)N(C)C)CC(=O)N1C [form A]
transformed into the form Y,–,–,a stable form,a stable form,a stable form,a stable form,a stable form,a stable form,a stable form,a stable form,a stable form,CCC[C@H]1C(=O)N[C@@H]([C@@H](C)CC)C(=O)N2CCC[C@H]2C(=O)N(C)[C@H]2C/C=C\CCN(C2=O)[C@@H](Cc2ccc(C(F)(F)F)cc2)C(=O)N(C)CC(=O)N[C@@H](CCc2ccc(C(F)(F)F)c(OC)c2)C(=O)N2C[C@H](OCC)C[C@H]2C(=O)N(C)C2(CCC2)C(=O)N(C)[C@@H](C2CCCC2)C(=O)N(C)[C@H](C(=O)N(C)C)CC(=O)N1C [form B]
